Key:
NS3-NS4 protease = molecular target: T1, NS3-NS4 protease (Hepatitis C virus genotype 1a, UniProt P27958); experiment: NS3-NS4 protease assay / NS3 inhibition assay, Section C; type: biochemical; settings: read-out: NS3-NS4 IC50
T1 construct: Recombinant E. coli or Baculovirus full-length NS3 was diluted to 3.33 μM with assay buffer; made in house; host or cells: E. coli or baculovirus (BV) system
Experimental: NS3 complex formation with NS4A-2.
Recombinant E. coli or Baculovirus full-length NS3 was diluted to 3.33 μM with assay buffer and transfered material to an eppendorf tube and place in water bath in 4° C. refrigerator. The appropriate amount of NS4A-2 to 8.3 mM in assay buffer was added to equal the volume of NS3 in step 2.1.1 (conversion factor −3.8 mg/272 μL assay buffer). The material was transferred to an eppendorf tube and place in water bath in 4° C. refrigerator.
After equilibration to 4° C., equal volumes of NS3 and NS4A-2 solutions were combined in an eppendorf tube, mix gently with a manual pipettor, and incubate mixture for 15 minutes in the 4° C. water bath. Final concentrations in the mixture are […] NS3, 4.15 mM NS4A-2 (2485-fold molar excess NS4A-2).
After 15 minutes at 4° C., the NS3/NS4A-2 eppendorf tube was removed and place it in a room temperature water bath for 10 minutes. NS3/NS4A-2 was alliquoted at appropriate volumes and store at −80° C. (E. coli NS3 run at 2 nM in assay, aliquot at 25 μL. BV NS3 run at 3 nM in assay, aliquot at 30 μL).
Step 2.2.5. Sample compounds were dissolved to 10 mM in DMSO then diluted to 2.5 mM (1:4) in DMSO.
Step 2.2.6. The E. coli. NS3/NS4A-2 was diluted to 4 nM NS3 (1:417.5 of […] stock−18 μL 1.67 μM stock+7497 μL assay buffer). The BV NS3/NS4A-2 was diluted to 6 nM NS3 (1:278.3 of 1.67 μM stock−24 μL 1.67 μM stock+6655 μL assay buffer).
Step 2.2.7. Using the manual multichannel pipettor, and being careful not to introduce bubbles into the plate, 50 μL assay buffer were added to wells A01-H01 of a black Costar 96-well polypropylene storage plate.
Step 2.2.8. Using the manual multichannel pipettor, and being careful not to introduce bubbles into the plate, 50 μL of diluted NS3/NS4A-2 from step 2.2.6 were added to wells A02-H12 of plate in step 2.2.7.
Step 2.2.9. Using the manual multichannel pipettor, and being careful not to introduce bubbles into the plate, 25 μL of the wells in drug dilution plate in step 2.2.5 were transferred to corresponding wells in assay plate in step 2.2.8. The tips on multichannel pipettor were changed for each row of compounds transferred.
Step 2.2.10. Using the manual multichannel pipettor, and being careful not to introduce bubbles into the plate, the contents of the wells from the assay plate in step 2.2.9 were mixed by aspirating and dispensing 35 μL of the 75 μL in each well five times. The tips on the multichannel pipettor were changed for each row of wells mixed.
Step 2.2.11. The plate was covered with a polystyrene plate lid, and the plate from step 2.2.10 containing NS3 protease and sample compounds was pre-incubated 10 minutes at room temperature.
While the plate from step 2.2.11 was pre-incubating, the RETS1 substrate was diluted in a 15 mL polypropylene centrifuge tube. The RETS1 substrate was diluted to 8 μM (1:80.75 of 646 μM stock−65 μL 646 μM stock+5184 μL assay buffer).
After the plate in step 2.2.11 was done pre-incubating, and using the manual multichannel, 25 μL of substrate were added to all wells on the plate. The contents of the wells of plate were quickly mixed, as in step 2.2.10, but mixing 65 μL of the 100 μL in the wells.
The plate was read in kinetic mode on the Molecular Devices SpectraMax Gemini XS plate reader. Reader settings: Read time: 30 minutes, Interval: 36 seconds, Reads: 51, Excitation λ: 335 nm, Emission λ: 495 nm, cutoff: 475 nm, Automix: off, Calibrate: once, PMT: high, Reads/well: 6, Vmax pts: 21 or 28/51 depending on length of linearity of reaction.
IC50s were determined using a four parameter curve fit equation, and converted to Ki's using the following Km's:
where Ki=IC50/(1+[S]/Km))

[1] = system: HCV sub-genomic replicon, GS4.3; experiment: Quantitation by ELISA of NPTII in the HCV sub-genomic replicon, GS4.3, Section C; type: cell-based; settings: Hepatitis C virus; GS4.3 cells, 72 h incubation; read-out: EC50
Excerpt: Quantitation by ELISA of the selectable marker protein, Neomycin phosphotransferase II (NPTII) in the HCV Sub-Genomic Replicon, GS4.3
The HCV sub-genomic replicon (1377/NS3-3′, accession No. AJ242652), stably maintained in HuH-7 hepatoma cells, was created by Lohmann et al. Science 285: 110-113 (1999). The replicon-containing cell culture, designated GS4.3, was obtained from Dr. Christoph Seeger of the Institute for Cancer Research, Fox Chase Cancer Center, Philadelphia, Pa.
GS4.3 cells were maintained at 37° C., 5% CO2, in DMEM (Gibco 11965-092) supplemented with L-glutamine 200 mM (100×) (Gibco25030-081), non-essential amino acids (NEAA)(Biowhittaker 13-114E), heat-inactivated (HI) Fetal Bovine Serum(FBS)(Hyclone SH3007.03) and 750 μg/ml geneticin (G418)(Gibco 10131-035). Cells were sub-divided 1:3 or 4 every 2-3 days.
24 h prior to the assay, GS4.3 cells were collected, counted, and plated in 96-well plates (Costar 3585) at 7500 cells/well in 100 μl standard maintenance medium (above) and incubated in the conditions above. To initiate the assay, culture medium was removed, cells were washed once with PBS (Gibco 10010-023) and 90 μl Assay Medium (DMEM, L-glutamine, NEAA, 10% HI FBS, no G418) was added. Inhibitors were made as a 10× stock in Assay Medium, (3-fold dilutions from 10 μM to […] final concentration, final DMSO concentration 1%), 10 μl were added to duplicate wells, plates were rocked to mix, and incubated as above for 72 h.
An NPTII Elisa kit was obtained from AGDIA, Inc. (Compound direct ELISA test system for Neomycin Phosphotransferase II, PSP 73000/4800). Manufacturer's instructions were followed, with some modifications. 10×PEB-1 lysis buffer was made up to include 500 μM PMSF (Sigma P7626, 50 mM stock in isopropanol). After 72 h incubation, cells were washed once with PBS and 150 μl PEB-1 with PMSF was added per well. Plates were agitated vigorously for 15 minutes, room temperature, then frozen at −70° C. Plates were thawed, lysates were mixed thoroughly, and 100 μl were applied to an NPTII Elisa plate. A standard curve was made. Lysate from DMSO-treated control cells was pooled, serially diluted with PEB-1 with PMSF, and applied to duplicate wells of the ELISA plate, in a range of initial lysate amount of 150u1-2.5 ul. In addition, 100 μl buffer alone was applied in duplicate as a blank. Plates were sealed and gently agitated at room temperature for 2 h. Following capture incubation, the plates were washed 5×300 μl with PBS-T (0.5% Tween-20, PBS-T was supplied in the ELISA kit). For detection, a 1× dilution of enzyme conjugate diluent MRS-2 (5×) was made in PBS-T, into which 1:100 dilutions of enzyme conjugates A and B were added, as per instructions. Plates were resealed, and incubated with agitation, covered, room temperature, for 2 h. The washing was then repeated and 100 μl of room temperature TMB substrate was added. After approximately 30 minutes incubation (room temperature, agitation, covered), the reaction was stopped with 50 μl 3M sulfuric acid. Plates were read at 450 nm on a Molecular Devices Versamax plate reader.
Inhibitor effect was expressed as a percentage of DMSO-treated control signal, and inhibition curves were calculated using a 4-parameter equation: y=A+((B−A)/(1+((C/x)^D))), where C is half-maximal activity or EC50.

T1 sequence (P27958 1027-1657): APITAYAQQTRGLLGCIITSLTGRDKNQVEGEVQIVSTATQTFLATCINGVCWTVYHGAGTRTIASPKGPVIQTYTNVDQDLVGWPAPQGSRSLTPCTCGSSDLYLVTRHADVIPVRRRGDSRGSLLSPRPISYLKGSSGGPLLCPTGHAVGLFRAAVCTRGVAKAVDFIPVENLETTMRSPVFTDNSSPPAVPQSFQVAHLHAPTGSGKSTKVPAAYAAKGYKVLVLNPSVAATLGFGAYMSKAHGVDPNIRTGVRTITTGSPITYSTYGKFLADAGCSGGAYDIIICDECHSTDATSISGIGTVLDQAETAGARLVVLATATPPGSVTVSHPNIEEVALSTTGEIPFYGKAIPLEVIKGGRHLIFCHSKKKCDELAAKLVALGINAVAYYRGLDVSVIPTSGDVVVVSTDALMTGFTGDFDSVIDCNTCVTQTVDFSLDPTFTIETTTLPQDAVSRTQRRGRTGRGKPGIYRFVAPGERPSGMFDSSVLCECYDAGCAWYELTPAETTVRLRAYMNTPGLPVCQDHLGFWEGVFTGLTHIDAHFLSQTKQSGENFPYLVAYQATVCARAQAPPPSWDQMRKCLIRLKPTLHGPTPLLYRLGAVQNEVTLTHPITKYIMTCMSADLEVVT

For `CC(C)(C)OC(=O)N[C@H]1CCCCC/C=C\[C@@H]2C[C@@]2(C(=O)NS(=O)(=O)N2CCOCC2)NC(=O)[C@@H]2C[C@@H](OC(=O)N3Cc4ccccc4C3)CN2C1=O` [Compound 104, (1S,4R,6S,14S,18R)-1,3-Dihydro-isoindole-2-carboxylic acid 14-tert-butoxycarbonylamino-4-(morpholinosulfonyl-aminocarbonyl)-2,15-dioxo-3,16-diaza-tricyclo[14.3.0.0^4,6]nonadec-7-en-18-yl ester], the IC50 (NS3-NS4 protease) was < 100 nM and the EC50 [1] was < 100 nM.

In the case of `CN(C)S(=O)(=O)NC(=O)[C@@]12C[C@H]1/C=C\CCCCC[C@H](NC(=O)OC(C)(C)C)C(=O)N1C[C@H](OC(=O)N3CCc4ccccc4C3CN3CCCCC3)C[C@H]1C(=O)N2` (stereo partly drawn) [Compound 107, (1S,4R,6S,14S,18R)-1-Piperidin-1-ylmethyl-3,4-dihydro-1H-isoquinoline-2-carboxylic acid 14-tert-butoxycarbonylamino-2,15-dioxo-4-(N,N-dimethyl-sulfonylaminocarbonyl)-3,16-diaza-tricyclo[14.3.0.0^4,6]nonadec-7-en-18-yl ester], the IC50 (NS3-NS4 protease) is reported as < 100 nM and the EC50 [1] is reported as < 100 nM.

`CC(C)(C)OC(=O)N[C@H]1CCCCC/C=C\[C@@H]2C[C@@]2(C(=O)NS(=O)(=O)NC2CC2)NC(=O)[C@@H]2C[C@@H](OC(=O)N3CCc4ccccc4C3CN3CCCCC3)CN2C1=O` (stereo partly drawn) [Compound 108] was tested, and the IC50 (NS3-NS4 protease) was < 1000 nM and the EC50 [1] was < 100 nM.

`CC(C)(C)OC(=O)N[C@H]1CCCCC/C=C\[C@@H]2C[C@@]2(C(=O)NS(=O)(=O)N2CCCC2)NC(=O)[C@@H]2C[C@@H](OC(=O)N3CCc4ccccc4C3CN3CCCCC3)CN2C1=O` (stereo partly drawn) [Compound 109, (1S,4R,6S,14S,18R)-1-Piperidin-1-ylmethyl-3,4-dihydro-1H-isoquinoline-2-carboxylic acid 14-tert-butoxycarbonylamino-2,15-dioxo-4-(pyrrolidino-sulfonylaminocarbonyl)-3,16-diaza-tricyclo[14.3.0.0^4,6]nonadec-7-en-18-yl ester] was tested, and the IC50 (NS3-NS4 protease) was < 100 nM and the EC50 [1] was < 1000 nM.

For `CN(C)S(=O)(=O)NC(=O)[C@@]12C[C@H]1/C=C\CCCCC[C@H](NC(=O)OC(C)(C)C)C(=O)N1C[C@H](OC(=O)N3Cc4ccc(Cl)cc4C3)C[C@H]1C(=O)N2` [Compound 113, (1S,4R,6S,14S,18R)-5-Chloro-1,3-Dihydro-isoindole-2-carboxylic acid 14-tert-butoxycarbonylamino-4-(N,N-dimethylsulfonyl-aminocarbonyl)-2,15-dioxo-3,16-diaza-tricyclo[14.3.0.0^4,6]nonadec-7-en-18-yl ester], the IC50 (NS3-NS4 protease) was < 100 nM and the EC50 [1] was < 100 nM.

With `CC(C)(C)OC(=O)N[C@H]1CCCCC/C=C\[C@@H]2C[C@@]2(C(=O)NS(=O)(=O)NC2CC2)NC(=O)[C@@H]2C[C@@H](OC(=O)N3Cc4ccc(Cl)cc4C3)CN2C1=O` [Compound 114] the IC50 (NS3-NS4 protease) was < 100 nM and the EC50 [1] was < 100 nM.

For `CC(C)(C)OC(=O)N[C@H]1CCCCC/C=C\[C@@H]2C[C@@]2(C(=O)NS(=O)(=O)N2CCCC2)NC(=O)[C@@H]2C[C@@H](OC(=O)N3Cc4ccc(Cl)cc4C3)CN2C1=O` [Compound 115, (1S,4R,6S,14S,18R)-5-Chloro-1,3-Dihydro-isoindole-2-carboxylic acid 14-tert-butoxycarbonylamino-4-(pyrrolidino-sulfonyl-aminocarbonyl)-2,15-dioxo-3,16-diaza-tricyclo[14.3.0.0^4,6]nonadec-7-en-18-yl ester], the IC50 (NS3-NS4 protease) was < 100 nM and the EC50 [1] was < 100 nM.

In the case of `CC(C)(C)OC(=O)N[C@H]1CCCCC/C=C\[C@@H]2C[C@@]2(C(=O)NS(=O)(=O)N2CCOCC2)NC(=O)[C@@H]2C[C@@H](OC(=O)N3Cc4ccc(Cl)cc4C3)CN2C1=O` [Compound 116, (1S,4R,6S,14S,18R)-5-Chloro-1,3-Dihydro-isoindole-2-carboxylic acid 14-tert-butoxycarbonylamino-4-(morpholino-sulfonyl-aminocarbonyl)-2,15-dioxo-3,16-diaza-tricyclo[14.3.0.0^4,6]nonadec-7-en-18-yl ester], the IC50 (NS3-NS4 protease) is reported as < 100 nM and the EC50 [1] is reported as < 1000 nM.

For `CC(C)(C)OC(=O)N[C@H]1CCCCC/C=C\[C@@H]2C[C@@]2(C(=O)NS(=O)(=O)N2CCC2)NC(=O)[C@@H]2C[C@@H](OC(=O)N3Cc4ccccc4C3)CN2C1=O` [Compound 117, (1S,4R,6S,14S,18R)-1,3-Dihydro-isoindole-2-carboxylic acid 14-tert-butoxycarbonylamino-4-(azetidino-sulfonyl-aminocarbonyl)-2,15-dioxo-3,16-diaza-tricyclo[14.3.0.0^4,6]nonadec-7-en-18-yl ester], the IC50 (NS3-NS4 protease) was < 100 nM and the EC50 [1] was < 100 nM.

Reference: patent US7491794B2, “Macrocyclic compounds as inhibitors of viral replication” (Intermune, Inc., priority 2003, dated 2009)
